# Measurements: patent US20250288687A1, “COMBINATION OF ANTIBODY-DRUG CONJUGATES AND DNMT INHIBITORS” (priority 2022, published 2025)
# What was measured:
# [1] = system: TROP2 and SLFN11 expression; details: decitabine treatment; cited from earlier work
# [2] = system: DLD-1 xenograft mouse model; assay: Antitumor test, IMMU-132 with or without decitabine pre-treatment; type: in vivo, BALB/c-nu mice; details: IMMU-132 10 mg/kg IV Day 7, 14; with vs without DAC 0.5 mg/kg SC Day 0-4 pre-treatment; Day 28, Welch's t-test; FIG. 15
# Procedure: Female BALB/c-nu mice aged 5 weeks (The Jackson Laboratory Japan, Inc.) were used, following 5 days acclimatization before entry into the study.
# (§1) 3×10^6 of DLD-1 cells suspended in saline were implanted subcutaneously onto the flank of the mice. The major axis and the minor axis of the tumor were measured twice a week with an electronic digital caliper and the tumor volume was calculated by the following equation:
# When the tumor volume reached approximately 100-150 mm^3, the tumor-bearing mice were randomly assigned to the treatment groups (Day 0) as shown in Table 2.
# Statistical significance between IMMU-132 group and Decitabine+IMMU-132 group was evaluated using Welch's t-test on the tumor volumes at the day of the final measurement (Day 28).
# Decitabine (DAC) was dissolved with Phosphate-buffered saline (PBS) and subcutaneously administered to the mice. IMMU-132 was dissolved with ABS buffer (10 mM Acetate buffer [pH5.5], 5% sorbitol) and intravenously administered to the tail vein of the mice. The dose volume of the compounds for each mouse was calculated based on the latest individual body weight measured within 2 days before dosing. DAC was subcutaneously administered at 0.5 mg/kg once a day from Day 0 to Day 4 (5 dosing in total). IMMU-132 was intravenously administered at 10 mg/kg to the tail vein on Day 7 and Day 14 (Weekly dosing×2).
# [3] = system: xenograft cell lines of metaplastic cancer origin and mesenchymal subtype breast cancer cell lines; details: sacituzumab govitecan combined with decitabine; cited from earlier work
# DLD-1 cells [4] = assay: Cell growth inhibition study, DS-1062a with or without decitabine pre-treatment (CellTiter-Glo); type: cell-based, Human; details: DAC (1, 0.3, 0.1 μM, 3 days) treated vs untreated cells, DS-1062a 0.1-100 nM, 6 days, FIG. 12A
# Procedure: (§2) Human colorectal cancer cell lines DLD-1 and HCT-15, obtained from American Type Culture Collection (ATCC), were incubated with RPMI1640 medium supplemented with 10% (v/v) heat-inactivated FBS, 1% (v/v) penicillin-streptomycin solution and 1 mM sodium pyruvate (Medium), with or without Decitabine (DAC) (Tokyo Chemical Industry Co., Ltd) at 1, 0.3 and 0.1 μM at 37° C. under 5% CO2 for 3 days. The cells were harvested and re-seeded at 1000 cells/80 μL/well into 96-well black clear bottom plates, and incubated overnight at 37° C. under 5% CO2. Then 20 μL of the DS-1062a solutions diluted with the Medium at the concentrations from 500 nM to 0.5 nM were added into the wells and incubated for 6 days for DLD-1 cells, and for 8 days for HCT-15 cells, respectively. The final concentrations of DS-1062a were 100, 10, 1 and 0.1 nM. After the incubation, the cellular ATP levels were measured using CellTiter-Glo Luminescent Cell Viability Assay (Promega) and a microplate reader.
# (§3) Cell viability, defined as relative percent to the value of DS-1062a non-treated cells in each group treated with or without DAC, was assessed (N=1 (triplicate), mean±SD).
# (§4) Individual cell viability (%) was calculated by the following equation:
# (§5) [formula] • T: individual luminescence intensity of the wells treated with DS-1062a at each concentration • C: mean luminescence intensity of the wells treated without DS-1062a
# HCT-15 cells = assay: as above; type: cell-based, Human; details: DAC (1, 0.3, 0.1 μM, 3 days) treated vs untreated cells, DS-1062a 0.1-100 nM, 8 days, FIG. 12B
# Procedure: as §2, §3, §4, §5
# [5] = system: DLD-1 xenograft mouse model; assay: Antitumor test, DS-1062a with or without decitabine pre-treatment; type: in vivo, BALB/c-nu mice; details: DS-1062a 10 mg/kg IV Day 7; DAC 0.5 mg/kg SC Day 0-4 pretreated vs untreated group; Day 28, Welch's t-test, P<0.05; FIG. 13
# Procedure: Female BALB/c-nu mice aged 5-6 weeks (The Jackson Laboratory Japan, Inc.) were used, following 4 days acclimatisation before entry into the study.
# as §1
# When the tumor volume reached approximately 100-150 mm^3, the tumor-bearing mice were randomly assigned to treatment groups (Day 0) as shown in Table 1:
# Decitabine (Tokyo Chemical Industry Co., Ltd) was dissolved and diluted with Phosphate-buffered saline (PBS) and subcutaneously administered to the mice. DS-1062a solution was diluted with ABS buffer (10 mM Acetate buffer [pH5.5], 5% sorbitol) and intravenously administered to the tail vein of the mice. The dose of the compounds for each mouse was calculated based on the individual body weight on the day of dosing. Decitabine was subcutaneously administered at 0.5 mg/kg once a day from Day 0 to Day 4 (5 dosing in total). […] Statistical significance between the ‘DS-1062a’ group and the ‘Decitabine+DS-1062a’ group was evaluated using Welch's t-test on the tumor volumes at the day of the final measurement (Day 28).
# DLD-1 cells [6] = assay: Cell growth inhibition study, DS-1062a with or without azacitidine pre-treatment (CellTiter-Glo); type: cell-based, Human; details: AZA (10, 3.3, 1.1 μM, 3 days) treated vs AZA untreated cells, DS-1062a 0.1-100 nM, 6 days, FIG. 14
# Procedure: Human colorectal cancer cell line DLD-1 was incubated with RPMI1640 medium supplemented with 10% (v/v) heat-inactivated FBS (Medium), with or without Azacitidine (AZA) at 10, 3.3 and 1.1 μM at 37° C. under 5% CO2 for 3 days. The cells were harvested and re-seeded at 1000 cells/90 μL/well into a 96-well black clear bottom plate, and incubated overnight at 37° C. under 5% CO2. Then 10 μL of the DS-1062a solutions diluted with the Medium at the concentrations from 1000 nM to 1 nM were added into the wells and incubated for 6 days. The final concentrations of DS-1062a were 100, 10, 1 and 0.1 nM. After the incubation, the cellular ATP levels were measured using CellTiter-Glo Luminescent Cell Viability Assay (Promega Corporation) and a microplate reader.
# Cell viability, defined as relative percent to the value of DS-1062a non-treated cells in each group treated with or without AZA, was assessed (N=1 (triplicate), mean±SD).
# Individual cell viability (%) was calculated by the following equation;
# as §5
compound,measurement,setting,value
"Nc1ncn([C@H]2C[C@H](O)[C@@H](CO)O2)c(=O)n1 [decitabine, 5-aza-2′-deoxycytidine]",TROP2 and SLFN11 expression,[1],upregulates
Sacituzumab govitecan [IMMU-132],antitumor activity (tumor volume),[2],not significantly different
same,antitumor efficacy,[3],enhances
datopotamab deruxtecan [DS-1062a],cell growth inhibitory activity (cell viability),DLD-1 cells [4],enhanced
same,cell growth inhibitory activity (cell viability),HCT-15 cells,enhanced
same,antitumor activity (tumor volume),[5],significantly enhanced
same,cell growth inhibitory activity (cell viability),DLD-1 cells [6],enhanced
